Laboratory results published in patent US20190290656A1, “PT(IV) PRODRUGS” (YISSUM RESEARCH DEVELOPMENT COMPANY OF THE HEBREW …, priority 2015, published 2019).
“And” between values parts separate entries of the source, which are not always exact repeats. Identical values can stand only once. Like-named read-outs stand apart in the source and are kept apart here.

What was measured:
HCT-15 cells = experiment: MTT cytotoxicity assay, HCT-15; type: cell-based, human
Method in brief: (§1)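 MTT viability read-out in HCT-15 and A375 human cancer cells after 72 h compound exposure; triplicate cultures per treatment.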

A375 cells = experiment: MTT cytotoxicity assay, A375; type: cell-based, human
Method in brief: as §1

2008 cells = experiment: MTT cytotoxicity assay, 2008; type: cell-based, human; settings: for IC50: 2008, 72 h, MTT
Experimental: (§2) MTT assay. […] Triplicate cultures were established for each treatment.
(§3) The two dimers, 3a and 3b, as well as compounds 1a and 2a were screened against six human cancer cell lines representative of lung (H157), colon (HCT-15), cervical (A431), ovarian (2008) and pancreatic (PSN1) cancers, along with melanoma (A375). Cytotoxicity was evaluated by means of the MTT test after 72 h of treatment and the in vitro antitumor potential of newly synthesized derivatives was compared to that of the reference metallo-drugs CDDP and OXP.

A431 cells = experiment: MTT cytotoxicity assay, A431; type: cell-based, human; settings: A431, 72 h
Experimental: as §2, §3

H157 cells = experiment: MTT cytotoxicity assay, H157; type: cell-based, human; settings: H157, 72 h
Experimental: as §2, §3

PSN1 cells = experiment: MTT cytotoxicity assay, PSN1; type: cell-based, human; settings: for IC50: PSN1, 72 h, MTT
Experimental: as §2, §3

HCT-15 spheroids = experiment: 3D spheroid APH assay, HCT-15; type: cell-based, human; settings: for IC50: HCT-15 spheroids, 72 h, APH test
Excerpt: (§4) Acid phosphatase (APH) assay. A modified APH assay, which is based on quantification of cytosolic acid phosphatase activity, was used for determining cell viability in spheroids. […] Triplicate cultures were established for each treatment. […] Evaluation was based on means from at least four independent experiments.
(§5) In order to improve the predictive capacity of the in vitro assays, we tested the activity in three three-dimensional (3D) cell cultures; human colon cancer cells, HCT-15, and human pancreatic cancer cells, KRAS wild type BxPC3 cells KRAS mutated PSN-1 cells. The cancer spheroids were treated with 3a and 3b for 72 h and the cell viability was assessed by means of the APH assay (Table 6). For comparison purposes, the cytotoxicities of CDDP and OXP were evaluated under the same experimental conditions.

BxPC3 spheroids = experiment: 3D spheroid APH assay, BxPC3; type: cell-based, human; settings: 72 h, APH test
Excerpt: as §4, §5

PSN-1 spheroids = experiment: 3D spheroid APH assay, PSN-1; type: cell-based, human; settings: for IC50: PSN-1 spheroids, 72 h, APH test
Excerpt: as §4, §5

[1] = test system: human embryonic kidney HEK293 cells; experiment: MTT cytotoxicity against non-tumor cells; type: cell-based; settings: for IC50: HEK293 non-tumor cells, 72 h, MTT; for SI (selectivity index): ratio between average IC50 of non-tumor cells and IC50 of malignant cells
Experimental: as §2
The cytotoxic activity of derivatives 3a and 3b was also evaluated against non-tumor cells, namely human embryonic kidney HEK293 cells (Table 7). Both compounds 3a and 3b were more cytotoxic than CDDP.

[2] = Stability in cell culture medium DMEM (NMR); type: physicochemical; settings: 37° C.
Experimental: A solution 2.0 mM of 3a (Scheme 4) in DMEM was kept at 37° C. for 3 days. NMR measurements were performed every day.
A phosphate buffer solution is an oversimplified model for medium of biological relevance in order to test the stability of a drug candidate. […] Thus, as following step, we evaluated the stability of 3a in cell culture medium DMEM, where the biomolecules present can affect the overall degradation process. A 2.0 mM solution of 3a in DMEM monitored by ^1H NMR spectroscopy for 3 days at 37° C. (FIG. 8).

[3] = test system: Histone deacetylase (HDAC); experiment: Histone deacetylase assay in 2008 cells; type: cell-based, human; settings: 24 h, IC50 concentrations
Experimental: (§6) Histone deacetylase assay. Histone deacetylase activity was determined using Fluor-de-Lys® HDAC fluorometric activity assay kit (Enzo Life Sciences International, Inc., Plymount Meeting, Pa., U.S.A.). 2008 and PSN1 cells (5.10^4 seeded in 96-well microplates) were treated for 24 h with tested complexes, and then processed as reported by the manufacturer's instructions. Fluorescence was measured using a Fluoroskan Ascent FL (Labsystem, Finland) plate reader, with excitation at 360 nm and emission at 460 nm.
(§7) Thus, we measured both the levels of DNA platination and the ability of these pro-drugs to inhibit HDAC activity in cancer cells.

[4] = test system: Histone deacetylase (HDAC); experiment: Histone deacetylase assay in PSN-1 cells; type: cell-based, human; settings: 24 h, IC50 concentrations
Experimental: as §6, §7

MCF-7 cells = experiment: MTT cytotoxicity assay, MCF-7; type: cell-based, human; settings: MCF-7, 72 h exposure, MTT; read-out: IC50 (median growth inhibitory concentration)
Experimental: Cisplatin (CDDP) and oxaliplatin (OXP) were dissolved just before the experiment in a 0.9% NaCl solution.
Human prostate adenocarcinoma (PC3) cells were obtained from European Collection of Cell Cultures (ECACC, Salisbury, UK). Human ovarian cancer cell lines A2780 and its cisplatin resistant variant, A2780cisR, were kindly provided by Prof.
Triplicate cultures were established for each treatment.

BxPC3 cells = experiment: MTT cytotoxicity assay, BxPC3; type: cell-based, human; settings: BxPC3, 72 h exposure, MTT; read-out: IC50 (median growth inhibitory concentration)
nine cancer cell lines = experiment: MTT cytotoxicity, over the nine cancer cell lines; settings: read-out: average IC50 values for the nine cancer cell lines; mean over nine cell lines, 72 h MTT
[5] = HCT-15, 72 h, MTT (Table 5), read-out: IC50 (μM) ± S.D.
[6] = A375, 72 h, MTT (Table 5), read-out: IC50 (μM) ± S.D.

Compound | IC50 (HCT-15 cells; [5]) [µM] | IC50 (A375 cells; [6]) [µM] | IC50 (2008 cells) [µM] | IC50 (A431 cells) [µM] | IC50 (H157 cells) [µM] | IC50 (PSN1 cells) [µM] | IC50 (HCT-15 spheroids) [µM] | IC50 (BxPC3 spheroids) [µM] | IC50 (PSN-1 spheroids) [µM] | IC50 [1] [µM] | SI (selectivity index) [1] | HDAC activity hampered [3] | HDAC activity hampered [4] | also measured
c,c,t,t,c,c-[(DACH)(56Phen)(PhBu)Pt(μ-OOC—(CH2)2—CONH(CH2)3COO)—Pt(DCA)(NH3)2 (Cl2)](TFA)2 [Compound 3a] | 0.36 ± 0.08 | 0.08 ± 0.01 | 0.79 | 0.2 ± 0.09 | 0.95 ± 0.08 | 0.09 | 40 ± 4.58 | 59.1 ± 3.84 | 10.3 ± 4.85 | 2.25 ± 0.29 | 5.5 | about 8% | ~10% | times more effective than CDDP (PSN1 cells; PSN1 cells): up to 200 fold; times more effective than OXP (PSN1 cells; PSN1 cells): ≤ 92 fold; times more effective than CDDP (HCT-15 spheroids; HCT-15 3D model): about 2 fold; factor by which activity exceeded that of the reference drugs (PSN-1 spheroids; PSN-1 3D model): about 6 fold; times SI better than that of cisplatin [1]: about 2 fold; Pt(IV)-phen moiety reduced ([2]; after 1 day): about 22%; Pt(IV)-phen moiety reduced ([2]; after 2 days): 39%; Pt(IV)-phen moiety reduced ([2]; after 3 days): 58%
[NH2][Pt]([NH2])([Cl])[Cl] [CDDP, Cisplatin, reference compound] | 15.3 ± 2.63 | 3.11 ± 0.98 | 2.22 | 1.65 ± 0.51 | 3.28 ± 2.38 | 18.2 | 89.2 ± 3.44 | 69.6 ± 8.21 | 59.9 ± 12.9 | 19.6 ± 2.95 | 2.7 | not effective in modifying HDAC activity | not effective in modifying HDAC activity | IC50 (MCF-7 cells): 17.4 ± 0.2 µM; IC50 (HCT-15 cells; HCT-15, 72 h exposure, MTT (Table 1), read-out: IC50 (median growth inhibitory concentration)): 11.3 ± 1.06 µM; IC50 (BxPC3 cells): 11.4 ± 1.14 µM; IC50 (A375 cells; A375, 72 h exposure, MTT (Table 1), read-out: IC50 (median growth inhibitory concentration)): 4.03 ± 0.95 µM; fold more potent than 3b (2008 cells; 2008 cells): ~3 fold; IC50 (nine cancer cell lines): 9.18 µM and 9.9 µM
